SMILES strings stand for the structures. Converted amounts (≈) assume the structure as drawn. The source made the active and inactive calls. No cut-off for these calls is given here. Some results are limits rather than exact numbers.

The results in this text go back to ChEMBL document CHEMBL1153302, “Synthesis and biological evaluation on novel analogs of 9-methylstreptimidone, an inhibitor of NF-kappaB” (Bioorg Med Chem Lett, 2009).

One assay deals with T-cell. Nature of the assay: Induction of apoptosis in T cell leukemia. It is filed as functional, cell-based.
Another assay has as its system Jurkat. Nature of the assay: Induction of apoptosis in human Jurkat cells. The assay is classed as functional, cell-based.
Assay [1] is described as follows: Inhibition of NF-kappaB in LPS-induced mouse RAW264.7 cells assessed as inhibition of NO production after 24 hrs. The assay is classed as cell-based.
Assay [2] relates to RAW264.7. Kind of assay: Inhibition of NF-kappaB in LPS-induced mouse RAW264.7 cells assessed as inhibition of iNOS expression after 24 hrs. The assay is classed as cell-based.
Assay [3] relates to RAW264.7. Kind of assay: Cytotoxicity against mouse RAW264.7 cells by MTT colorimetric assay in presence of LPS. It is filed as functional. Particulars: read-out: ED50 (the source's name). In general terms: Tetrazolium assays rely on reduction of a dye to a coloured formazan, in cell work by metabolically active cells.
Setting [4] is: Mus musculus, RAW264.7, 24 h, read-out: IC50.

As a reminder, the IC50 is the concentration at which inhibition is half-maximal. Consider `C/C=C\C(C)=C\[C@@H](C)C(=O)C[C@H](O)CC1CC(=O)NC(=O)C1`, for which the outcome in the assay on T-cell, with Jurkat and in the assay on RAW264.7 [2] was Active. Besides, the IC50 result in assay [1] (raw264.7) is “Active”.

Regarding `O=C1CC(CC(=O)NC2CCCCC2)CC(=O)N1`, the IC50 in assay [1] (setting [4]) was over 30 µg/mL. For the same molecule, the EC50 in the assay with RAW264.7 [3] is over 30 µg/mL.

Regarding `CC(C)(C)OC(=O)/C=C/CC1CC(=O)NC(=O)C1`, in assay [1] (setting [4]), the IC50 was found to be 30 µg/mL (≈ 118 µM). The EC50 with RAW264.7 [3] is over 30 µg/mL.

Consider `CCCCCCSC(=O)CC1CC(=O)NC(=O)C1`, for which the IC50 in assay [1] (setting [4]) was found to be 15 µg/mL (≈ 55.3 µM). Moreover, in the assay with RAW264.7 [3], the EC50 is over 30 µg/mL.

As to `O=C1CC(C/C=C/C(=O)c2cccc(OCc3ccccc3)c2)CC(=O)N1`, the IC50 in assay [1] (setting [4]) was 3 µg/mL (≈ 8.26 µM). Besides, in the assay with RAW264.7 [3], the EC50 stood at 8 µg/mL.

In the case of `CCCCCCCCCCCCOC(=O)CC1CC(=O)NC(=O)C1`, the IC50 in assay [1] (setting [4]) is over 30 µg/mL. In addition, the EC50 with RAW264.7 [3] is over 30 µg/mL.

As for `CCCCCCOC(=O)CC1CC(=O)NC(=O)C1`, in assay [1] (setting [4]), the IC50 was over 30 µg/mL. In addition, the EC50 in the assay with RAW264.7 [3] was over 30 µg/mL.

For the molecule `CCCCCCCCCCCCSC(=O)CC1CC(=O)N(CC)C(=O)C1`, in assay [1] (setting [4]), the IC50 amounted to 2 µg/mL (≈ 5.21 µM). Further, in the assay on RAW264.7 [3], the EC50 was 20 µg/mL.

As to `O=C(O)CC1CC(=O)NC(=O)C1`, the IC50 in assay [1] (setting [4]) was over 30 µg/mL. For the same molecule, the EC50 in the assay on RAW264.7 [3] was over 30 µg/mL.

For the molecule `CCCCCCCCCCCCSC(=O)CC1CC(=O)NC(=O)C1`, the IC50 in assay [1] (setting [4]) stood at 1 µg/mL (≈ 2.81 µM). In addition, the EC50 in the assay with RAW264.7 [3] came out at 15 µg/mL.

Consider `CCCCCCNC(=O)CC1CC(=O)NC(=O)C1`, for which the IC50 in assay [1] (setting [4]) is over 30 µg/mL. Also, in the assay on RAW264.7 [3], the EC50 is over 30 µg/mL.

On to `CCCCCCCCCCCCSC(=O)CC1CC(=O)N(C)C(=O)C1`, for which the IC50 in assay [1] (setting [4]) worked out at 2 µg/mL (≈ 5.41 µM). Moreover, in the assay with RAW264.7 [3], the EC50 was determined as 8 µg/mL.

`CCCCCCCCCCCCNC(=O)CC1CC(=O)NC(=O)C1`: in assay [1] (setting [4]), the IC50 was over 30 µg/mL. For the same molecule, the EC50 in the assay with RAW264.7 [3] is 25 µg/mL.
